From PubChem BioAssay AID330 (DTP/NCI, 2004)
Where “and” joins values, the source holds several entries; their conditions need not be identical. Equal entries are not always repeated. Inconclusive results and toxic doses are left out. How the source made its calls: active means survival T/C of 150% or more; inactive means T/C below 125% in these data.

Tested on: P388 leukemia ip, CD2F1 mice, survival T/C
Assay: NCI In Vivo Anticancer Drug Screen. Data for tumor model P388 Leukemia (intraperitoneal) in CD2F1 (CDF1) mice
Settings: endpoint: median survival time, higher = longer survival
Summary of the method: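 Mice carrying the transplanted tumor received test compound or vehicle. Survival was recorded in each group, and the value is the treated-group measurement divided by that of the vehicle-treated control group.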

[1] = dose: 50.0 mg/kg/injection, schedule: Q01DX005 (ip), vehicle: Klucel (hydroxypropylcellulose) (HPC)
[2] = dose: 100.0 mg/kg/injection, schedule: Q01DX005 (ip), vehicle: Klucel (hydroxypropylcellulose) (HPC)
[3] = dose: 200.0 mg/kg/injection, schedule: Q01DX005 (ip), vehicle: Klucel (hydroxypropylcellulose) (HPC)
[4] = dose: 6.25 mg/kg/injection, schedule: Q01DX009 (ip), vehicle: saline with Tween-80
[5] = dose: 12.5 mg/kg/injection, schedule: Q01DX009 (ip), vehicle: saline with Tween-80
[6] = dose: 25.0 mg/kg/injection, schedule: Q01DX009 (ip), vehicle: saline with Tween-80
[7] = dose: 50.0 mg/kg/injection, schedule: Q01DX009 (ip), vehicle: Klucel (hydroxypropylcellulose) (HPC)
[8] = dose: 50.0 mg/kg/injection, schedule: Q01DX009 (ip), vehicle: saline with Tween-80
[9] = dose: 100.0 mg/kg/injection, schedule: Q01DX009 (ip), vehicle: Klucel (hydroxypropylcellulose) (HPC)
[10] = dose: 15.0 mg/kg/injection, schedule: Q01DX005 (ip), vehicle: saline with Tween-80
[11] = dose: 30.0 mg/kg/injection, schedule: Q01DX005 (ip), vehicle: saline with Tween-80
[12] = dose: 60.0 mg/kg/injection, schedule: Q01DX005 (ip), vehicle: saline with Tween-80
[13] = dose: 100.0 mg/kg/injection, schedule: Q01DX009 (ip), vehicle: saline with Tween-80
[14] = dose: 200.0 mg/kg/injection, schedule: Q01DX009 (ip), vehicle: saline with Tween-80
[15] = dose: 50.0 mg/kg/injection, schedule: Q01DX005 (ip), vehicle: saline with Tween-80
[16] = dose: 100.0 mg/kg/injection, schedule: Q01DX005 (ip), vehicle: saline with Tween-80
[17] = dose: 200.0 mg/kg/injection, schedule: Q01DX005 (ip), vehicle: saline with Tween-80
[18] = dose: 100.0 mg/kg/injection, schedule: Q04DX002 (ip), vehicle: saline with Tween-80
[19] = dose: 240.0 mg/kg/injection, schedule: Q01DX005 (ip), vehicle: saline with Tween-80
[20] = dose: 200.0 mg/kg/injection, schedule: Q01DX009 (ip), vehicle: Klucel (hydroxypropylcellulose) (HPC)
[21] = dose: 120.0 mg/kg/injection, schedule: Q01DX005 (ip), vehicle: saline with Tween-80

Measured: T/C

CN(c1ccccc1)c1cc2c(cc1[N+](=O)[O-])no[n+]2[O-]
inactive: dose: 7.5 mg/kg/injection, schedule: Q01DX009 (ip), vehicle: saline 100 % of control and 86 % of control and 97 % of control | dose: 15.0 mg/kg/injection, schedule: Q01DX009 (ip), vehicle: saline 107 % of control and 94 % of control | dose: 30.0 mg/kg/injection, schedule: Q01DX009 (ip), vehicle: saline 105 % of control and 95 % of control | dose: 60.0 mg/kg/injection, schedule: Q01DX009 (ip), vehicle: saline 100 % of control and 101 % of control and 92 % of control

CC1=CC(=C2C(=O)c3ccccc3C2=O)N(CCN2CCCCC2)C=C1
inactive: [1] 93 % of control | [2] 102 % of control | [3] 93 % of control

CC(C)NCC(O)COc1ccccc1C1CCCCC1 (centres undefined)
inactive: dose: 6.25 mg/kg/injection, schedule: Q01DX009 (ip), vehicle: Klucel (hydroxypropylcellulose) (HPC) 103 % of control | [4] 102 % of control | dose: 12.5 mg/kg/injection, schedule: Q01DX009 (ip), vehicle: Klucel (hydroxypropylcellulose) (HPC) 106 % of control | [5] 123 % of control and 94 % of control | [6] 102 % of control and 113 % of control | [7] 104 % of control | [8] 99 % of control and 118 % of control and 96 % of control | [9] 98 % of control

O=C(Nc1nnc(-c2ccccc2)s1)c1cc(=O)c2cc(Cl)ccc2o1
inactive: [1] 114 % of control | [2] 98 % of control | [3] 106 % of control

O=S1(=O)OCCCCO1
inactive: dose: 12.5 mg/kg/injection, schedule: Q01DX005 (ip), vehicle: saline 107 % of control | dose: 25.0 mg/kg/injection, schedule: Q01DX005 (ip), vehicle: saline 100 % of control

O=C(c1ccccc1)c1c(CO[N+](=O)[O-])n([O-])c2ccccc2[n+]1=O
inactive: [10] 105 % of control | [11] 109 % of control | [12] 104 % of control and 109 % of control

COC(=O)/C=C1/C(=O)N(C)c2ccccc21
inactive: [5] 98 % of control and 102 % of control | [6] 102 % of control and 111 % of control and 90 % of control | [8] 100 % of control and 106 % of control and 92 % of control | [13] 106 % of control and 110 % of control and 113 % of control

CC(C)NS(=O)(=O)OCC(O)(CC(Cl)(Cl)Cl)c1ccccc1 (centres undefined)
inactive: [8] 105 % of control | [13] 109 % of control and 112 % of control | [14] 105 % of control

S=C(S)NCCCn1ccnc1
inactive: [15] 117 % of control | [16] 109 % of control | [17] 110 % of control

COc1ccc(/C=N\N=C(/[O-])c2ccccc2O)cc1.COc1ccc(/C=N\N=C(/[O-])c2ccccc2O)cc1.[OH3+].[OH3+].[Zn+2]
inactive: [18] 100 % of control | dose: 200.0 mg/kg/injection, schedule: Q04DX002 (ip), vehicle: saline with Tween-80 98 % of control | dose: 400.0 mg/kg/injection, schedule: Q04DX002 (ip), vehicle: saline with Tween-80 91 % of control

O=C(NC(=S)Nc1cccc2c(O)cccc12)c1cccc(Br)c1
inactive: [10] 91 % of control | [11] 89 % of control | [12] 91 % of control | [19] 90 % of control and 94 % of control

O=C(Oc1ccc(C2c3cc(OC(=O)c4ccccc4)c(OC(=O)c4ccccc4)cc3CC3C(=O)OCC32)cc1OC(=O)c1ccccc1)c1ccccc1 (centres undefined)
inactive: [15] 88 % of control | [17] 86 % of control

COc1cccc(C2NC(=S)NC(=O)C2C#N)c1 (centres undefined)
inactive: [7] 98 % of control | [9] 98 % of control | [20] 94 % of control

CC[C@H]1CN2CCc3c([nH]c4ccccc34)[C@@H]2C[C@@H]1/C(=C\OC)C(=O)OC
inactive: [15] 108 % of control | [16] 108 % of control | [17] 108 % of control

COC1C(OC2CCC3(C=O)C4CCC5(C)C(C6=CC(=O)OC6)CCC5(O)C4CCC3(O)C2)OC(C)C(O)C1OC (centres undefined)
inactive: dose: 0.35 mg/kg/injection, schedule: Q01DX009 (ip), vehicle: saline 99 % of control | dose: 0.7 mg/kg/injection, schedule: Q01DX009 (ip), vehicle: saline 100 % of control | dose: 1.4 mg/kg/injection, schedule: Q01DX009 (ip), vehicle: saline 100 % of control | dose: 2.8 mg/kg/injection, schedule: Q01DX009 (ip), vehicle: saline 100 % of control

CC(C)(C)[P+](C)(C)c1ccccc1
inactive: dose: 12.5 mg/kg/injection, schedule: Q04DX003 (ip), vehicle: Klucel (hydroxypropylcellulose) (HPC) 105 % of control | dose: 25.0 mg/kg/injection, schedule: Q04DX003 (ip), vehicle: Klucel (hydroxypropylcellulose) (HPC) 100 % of control

CCC[CH2][Sn](=[O])[c]1ccccc1
inactive: dose: 12.5 mg/kg/injection, schedule: Q04DX002 (ip), vehicle: saline with Tween-80 100 % of control and 119 % of control | dose: 25.0 mg/kg/injection, schedule: Q04DX002 (ip), vehicle: saline with Tween-80 103 % of control and 106 % of control | dose: 50.0 mg/kg/injection, schedule: Q04DX002 (ip), vehicle: saline with Tween-80 103 % of control and 109 % of control | [18] 103 % of control and 116 % of control

O=C(Nc1cccc(Cl)c1Cl)c1cc(/C=C/c2ccc([N+](=O)[O-])cc2)on1
inactive: [11] 95 % of control | [12] 91 % of control and 96 % of control | [21] 87 % of control and 95 % of control | [19] 97 % of control

N#Cc1c(-c2ccccc2)c(-c2ccccc2)n(-c2ccccc2)c1N
inactive: [8] 104 % of control | [13] 104 % of control | [14] 104 % of control

N#CCN(CC#N)CC#N
inactive: dose: 1.56 mg/kg/injection, schedule: Q01DX009 (ip), vehicle: saline with Tween-80 104 % of control | dose: 1.56 mg/kg/injection, schedule: Q04DX003 (ip), vehicle: saline with Tween-80 95 % of control | dose: 3.13 mg/kg/injection, schedule: Q01DX009 (ip), vehicle: saline with Tween-80 90 % of control | dose: 3.13 mg/kg/injection, schedule: Q04DX003 (ip), vehicle: saline with Tween-80 90 % of control | [4] 109 % of control | dose: 6.25 mg/kg/injection, schedule: Q04DX003 (ip), vehicle: saline with Tween-80 90 % of control

Cc1ccc2c(c1)C1(SC(C)C(=O)N1c1ccc(Cl)cc1)C(=O)N2 (centres undefined)
inactive: [11] 103 % of control | [12] 114 % of control and 121 % of control | [21] 119 % of control

COc1cc2c(cc1C(C)c1ccc(OC(C)=O)cc1)OCO2 (centres undefined)
inactive: dose: 25.0 mg/kg/injection, schedule: Q01DX005 (ip), vehicle: Klucel (hydroxypropylcellulose) (HPC) 103 % of control | [1] 103 % of control | [2] 99 % of control | [3] 101 % of control

NC(=S)N/N=C\c1[nH]c(=O)nc2ccccc12
inactive: [9] 100 % of control | [20] 100 % of control | dose: 400.0 mg/kg/injection, schedule: Q01DX009 (ip), vehicle: Klucel (hydroxypropylcellulose) (HPC) 100 % of control

C=C1CC2(CC(C)CCC2C(=C)C)OC1=O (centres undefined)
inactive: dose: 100.0 mg/kg/injection, schedule: Q01DX001 (ip), vehicle: saline 101 % of control | dose: 200.0 mg/kg/injection, schedule: Q01DX001 (ip), vehicle: saline 102 % of control | dose: 400.0 mg/kg/injection, schedule: Q01DX001 (ip), vehicle: saline 99 % of control
